{
  "source": "paper PMC7473772",
  "about": "(eLife, 2020)",
  "key": {"[1]": {"tested_on": "tbaqp2/tbaqp3 null cells expressing TbAQP2^I110W", "type": "cell-based, Trypanosoma brucei brucei"}, "[2]": {"target": "T1, aqp1/aqp2/aqp3 null cells expressing TbAQP2-WT (Trypanosoma brucei brucei, UniProt Q6ZXT3)", "T1 sequence (Q6ZXT3 1-312)": "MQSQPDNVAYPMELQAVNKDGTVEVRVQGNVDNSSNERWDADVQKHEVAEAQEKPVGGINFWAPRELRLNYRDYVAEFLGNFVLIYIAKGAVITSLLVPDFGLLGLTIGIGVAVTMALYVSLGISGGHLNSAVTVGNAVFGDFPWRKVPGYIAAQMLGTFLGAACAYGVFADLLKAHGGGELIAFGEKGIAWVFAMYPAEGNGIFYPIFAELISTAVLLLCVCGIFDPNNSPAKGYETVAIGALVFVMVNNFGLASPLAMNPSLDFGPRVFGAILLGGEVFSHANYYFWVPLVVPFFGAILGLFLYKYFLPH", "test": "Inhibition of [3H]-glycerol uptake", "type": "cell-based", "conditions": "for glycerol uptake: zero inhibitor point 0.002246"}, "[3]": {"tested_on": "tbaqp2/tbaqp3 null cells expressing TbAQP2^W192G", "type": "cell-based, Trypanosoma brucei brucei"}, "TbAQP2^S131P/S263A": {"target": "TbAQP2^S131P/S263A (Trypanosoma brucei brucei, UniProt Q6ZXT3, S131P/S263A)", "sequence (Q6ZXT3 whole entry S131P/S263A)": "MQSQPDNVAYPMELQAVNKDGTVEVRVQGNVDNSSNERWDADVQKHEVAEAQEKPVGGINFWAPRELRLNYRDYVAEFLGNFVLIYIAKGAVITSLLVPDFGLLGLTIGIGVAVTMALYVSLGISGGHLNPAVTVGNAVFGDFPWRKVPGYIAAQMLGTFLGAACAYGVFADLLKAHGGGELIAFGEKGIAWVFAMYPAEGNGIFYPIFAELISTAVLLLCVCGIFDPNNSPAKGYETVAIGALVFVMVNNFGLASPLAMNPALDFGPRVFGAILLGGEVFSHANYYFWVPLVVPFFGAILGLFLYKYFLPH", "test": "[3H]-pentamidine transport", "type": "cell-based", "conditions": "30 nM [3H]-pentamidine"}, "TbAQP3^W102I/R256L/Y250L": {"target": "TbAQP3^W102I/R256L/Y250L (Trypanosoma brucei brucei, UniProt Q6ZXT2, R256L/W102I/Y250L)", "sequence (Q6ZXT2 whole entry W102I/Y250L/R256L)": "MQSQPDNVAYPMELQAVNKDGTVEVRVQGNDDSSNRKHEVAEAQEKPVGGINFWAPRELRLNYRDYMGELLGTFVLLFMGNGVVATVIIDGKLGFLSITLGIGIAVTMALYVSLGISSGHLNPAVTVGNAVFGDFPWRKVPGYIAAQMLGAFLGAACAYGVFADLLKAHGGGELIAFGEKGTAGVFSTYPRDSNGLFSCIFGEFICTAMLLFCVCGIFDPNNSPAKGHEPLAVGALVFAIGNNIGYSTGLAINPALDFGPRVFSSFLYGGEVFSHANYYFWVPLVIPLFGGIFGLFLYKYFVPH", "test": "[3H]-pentamidine transport", "type": "cell-based", "conditions": "AQP3 W102I/R256L/Y250L; over 30 minutes"}, "TbAQP2 L218M": {"target": "TbAQP2 L218M (Trypanosoma brucei brucei, UniProt Q6ZXT3, L218M)", "sequence (Q6ZXT3 whole entry L218M)": "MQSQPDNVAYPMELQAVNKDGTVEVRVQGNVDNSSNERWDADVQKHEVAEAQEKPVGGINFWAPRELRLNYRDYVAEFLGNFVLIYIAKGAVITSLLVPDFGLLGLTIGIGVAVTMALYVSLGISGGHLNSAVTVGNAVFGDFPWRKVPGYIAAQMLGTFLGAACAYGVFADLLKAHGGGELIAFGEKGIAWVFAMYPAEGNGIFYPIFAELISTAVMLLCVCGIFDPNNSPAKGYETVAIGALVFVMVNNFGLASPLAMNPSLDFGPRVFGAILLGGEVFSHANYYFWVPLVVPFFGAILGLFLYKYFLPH", "test": "[3H]-pentamidine transport", "type": "cell-based", "conditions": "AQP2 mutant L218M; n=3"}, "TbAQP2WT [4]": {"target": "TbAQP2WT (Trypanosoma brucei brucei, UniProt Q6ZXT3)", "test": "cell-based"}, "TbAQP2WT [5]": {"tested_on": "TbAQP2WT", "test": "cell-based", "parameters": "species or system Trypanosoma brucei brucei"}, "TbAQP2^L264R": {"target": "TbAQP2^L264R (Trypanosoma brucei brucei, UniProt Q6ZXT3, L264R)", "sequence (Q6ZXT3 whole entry L264R)": "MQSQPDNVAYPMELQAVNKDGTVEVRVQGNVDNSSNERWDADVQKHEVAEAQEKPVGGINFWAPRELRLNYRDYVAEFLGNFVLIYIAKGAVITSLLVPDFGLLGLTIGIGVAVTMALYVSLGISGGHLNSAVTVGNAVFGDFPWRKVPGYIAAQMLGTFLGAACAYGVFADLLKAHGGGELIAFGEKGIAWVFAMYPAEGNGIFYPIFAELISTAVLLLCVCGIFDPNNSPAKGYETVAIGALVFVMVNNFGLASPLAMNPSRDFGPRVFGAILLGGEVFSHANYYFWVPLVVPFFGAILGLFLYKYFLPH", "test": "[3H]-pentamidine transport", "type": "cell-based", "conditions": "30 nM [3H]-pentamidine"}, "[6]": {"tested_on": "tbaqp2/tbaqp3 null cells expressing TbAQP2^L264R", "type": "cell-based, Trypanosoma brucei brucei"}, "TbAQP3": {"target": "TbAQP3 (Trypanosoma brucei brucei, UniProt Q6ZXT2)", "sequence (Q6ZXT2 whole entry)": "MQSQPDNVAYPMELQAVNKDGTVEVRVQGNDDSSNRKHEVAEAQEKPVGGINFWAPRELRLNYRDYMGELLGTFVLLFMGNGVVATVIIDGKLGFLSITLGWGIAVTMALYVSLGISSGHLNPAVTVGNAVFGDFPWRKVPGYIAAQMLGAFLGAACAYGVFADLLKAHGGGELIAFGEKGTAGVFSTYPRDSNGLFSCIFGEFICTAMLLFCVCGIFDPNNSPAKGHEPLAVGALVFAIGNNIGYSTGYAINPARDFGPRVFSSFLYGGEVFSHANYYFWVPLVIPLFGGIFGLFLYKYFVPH", "type": "cell-based"}, "TbAQP2 L84W": {"target": "TbAQP2 L84W (Trypanosoma brucei brucei, UniProt Q6ZXT3, L84W)", "sequence (Q6ZXT3 whole entry L84W)": "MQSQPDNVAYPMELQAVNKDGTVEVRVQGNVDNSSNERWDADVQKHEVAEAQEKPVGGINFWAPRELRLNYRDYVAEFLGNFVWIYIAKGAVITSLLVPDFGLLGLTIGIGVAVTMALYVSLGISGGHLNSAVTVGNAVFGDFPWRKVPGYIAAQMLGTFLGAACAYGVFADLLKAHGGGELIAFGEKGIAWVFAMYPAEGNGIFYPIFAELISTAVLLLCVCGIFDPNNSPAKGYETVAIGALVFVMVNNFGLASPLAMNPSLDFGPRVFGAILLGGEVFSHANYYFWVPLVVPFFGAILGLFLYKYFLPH", "test": "[3H]-pentamidine transport", "type": "cell-based", "conditions": "AQP2 mutant L84W; n=5"}, "T. b. brucei 2T1": {"tested_on": "T. b. brucei 2T1", "test": "Drug sensitivity assay (resazurin)", "type": "cell-based", "conditions": "Trypanosoma brucei, 48 h drug + 24 h resazurin, read-out: EC50 control 2T1 AVG", "procedure,_shortened": "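Resazurin viability read after 48 hr compound exposure (doubling dilutions starting at 100 µM, 23 points plus no-drug control) and a further 24 hr with dye, at 37°C/5% CO2. Cells were bloodstream-form trypanosomes in HMI-11: 2T1-derived aquaporin nulls and a tetracycline-induced (1 µg/ml) CRK12 RNAi line.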"}, "tbaqp2/tbaqp3 null cells": {"tested_on": "tbaqp2/tbaqp3 null cells", "test": "[3H]-pentamidine transport", "type": "cell-based, Trypanosoma brucei brucei"}, "TbAQP2/HAPT1": {"target": "TbAQP2/HAPT1 (Trypanosoma brucei brucei, UniProt Q6ZXT3)", "conditions": "cited from earlier work"}, "[7]": {"tested_on": "tbaqp2/tbaqp3 null cells expressing TbAQP2WT", "test": "microbe, parasite or virus in culture", "type": "cell-based, Trypanosoma brucei brucei"}, "[8]": {"tested_on": "tbaqp2/tbaqp3 null cells expressing TbAQP2^I190T", "type": "cell-based, Trypanosoma brucei brucei"}, "[9]": {"tested_on": "tbaqp2/tbaqp3 null cells expressing TbAQP2 L84M", "test": "microbe, parasite or virus in culture", "type": "cell-based, Trypanosoma brucei brucei", "conditions": "Trypanosoma brucei"}, "[10]": {"conditions": "AQP2/3-dKO, 30 nM [3H]-pentamidine, 1 mM adenosine"}, "[11]": {"conditions": "Fig. 3A, exp AQP016-AQP023, AQP2/3-dKO"}, "[12]": {"conditions": "Fig. 3A, exp AQP038-AQP041, AQP2/3-dKO"}, "[13]": {"conditions": "dKO control of the AQP3 mutant series, over 30 minutes"}, "[14]": {"conditions": "read-out: Alamar blue EC50, MEAN"}},
  "note": "Several values for one entry are separate records, joined by “and”; a condition that tells them apart may be missing. Equal values may be shown once. Read-outs that look alike come from different tables or passages of the source.",
  "data": [
    {"smiles": "N=C(N)c1ccc(OCCCCCOc2ccc(C(=N)N)cc2)cc1", "note": "[Pentamidine]", "values": [
      {"measurement": "EC50, percent of AQP2/3 null EC50", "setting": "[1]", "result": 122.13, "unit": "%"},
      {"measurement": "EC50", "setting": "[2]", "result": 27.5, "unit": "nM"},
      {"measurement": "glycerol uptake", "setting": "[2]; log[inhibitor] -3.60", "result": "6.78e-20"},
      {"measurement": "glycerol uptake", "setting": "[2]; log[inhibitor] -6.48", "result": 0.000111},
      {"measurement": "glycerol uptake", "setting": "[2]; log[inhibitor] -7.00", "result": 0.000765},
      {"measurement": "glycerol uptake", "setting": "[2]; log[inhibitor] -7.52", "result": 0.00147},
      {"measurement": "glycerol uptake", "setting": "[2]; log[inhibitor] -8.00", "result": 0.002105},
      {"measurement": "glycerol uptake", "setting": "[2]; log[inhibitor] -8.48", "result": 0.002143},
      {"measurement": "glycerol uptake", "setting": "[2]; log[inhibitor] -9.00", "result": 0.002263},
      {"measurement": "glycerol uptake", "setting": "[2]; log[inhibitor] -9.48", "result": 0.002177},
      {"measurement": "EC50 as percent of AQP2/3 null EC50, MEAN", "setting": "[3]", "result": 8.08, "unit": "%"},
      {"measurement": "Pentamidine transport rate", "setting": "TbAQP2^S131P/S263A", "result": 0.00111, "unit": "pmol/10E7 cells/s"},
      {"measurement": "Pentamidine transport rate", "setting": "TbAQP3^W102I/R256L/Y250L", "result": "2.46E-04", "unit": "pmol/10E7 cells/s"},
      {"measurement": "Pentamidine transport rate AVG", "setting": "TbAQP2 L218M", "result": 0.004612, "unit": "pmol/10E7 cells/s"},
      {"measurement": "EC50", "setting": "TbAQP2WT [4]", "result": "41 ± 17", "unit": "nM"},
      {"measurement": "Pentamidine transport rate AVG", "setting": "TbAQP2WT [4]", "result": 0.02122, "unit": "pmol/10E7 cells/s"},
      {"measurement": "Pentamidine transport rate as percent of +AQP2-WT, AVG", "setting": "TbAQP2WT [4]", "result": 100.0, "unit": "%"},
      {"measurement": "Pentamidine transport rate as percent of +AQP2-WT, single experiments", "setting": "TbAQP2WT [4]", "result": 100.0, "unit": "%"},
      {"measurement": "Pentamidine transport rate, AVG", "setting": "TbAQP2WT [4]", "result": "0.02122 pmol/10E7 cells/s and 0.03781 pmol/10E7 cells/s"},
      {"measurement": "Pentamidine transport rate, percent of +AQP2-WT, AVG", "setting": "TbAQP2WT [4]", "result": "100.00% of +AQP2-WT"},
      {"measurement": "Transport rate AVG", "setting": "TbAQP2WT [4]", "result": 100},
      {"measurement": "activity at 0.03 µM", "setting": "TbAQP2WT [4]; read-out: Pentamidine transport rate, percent of +AQP2-WT", "result": 100, "unit": "%"},
      {"measurement": "Km", "setting": "TbAQP2WT [5]; TbAQP2-WT cells, read-out: Km of low affinity component (LAPT1)", "result": "82.7 ± 17.5", "unit": "µM"},
      {"measurement": "[3H]-pentamidine taken up by the low affinity component", "setting": "TbAQP2WT [5]; highly similar for TbAQP2^I190T and TbAQP2WT cell lines", "result": "approximately 0.0005 pmol(10^7 cells)^−1 s^−1"},
      {"measurement": "Pentamidine transport rate", "setting": "TbAQP2^L264R", "result": 0.00017, "unit": "pmol/10E7 cells/s"},
      {"measurement": "EC50, percent of AQP2/3 null EC50", "setting": "[6]", "result": 126.58, "unit": "%"},
      {"measurement": "Pentamidine transport rate", "setting": "TbAQP3", "result": "1.04E-04", "unit": "pmol/10E7 cells/s"},
      {"measurement": "Pentamidine transport rate, percent of TbAQP2WT control", "setting": "TbAQP3", "result": 0.49, "unit": "%"},
      {"measurement": "Transport rate AVG", "setting": "TbAQP3", "result": 0.48},
      {"measurement": "Pentamidine transport rate AVG", "setting": "TbAQP2 L84W", "result": 0.0006628, "unit": "pmol/10E7 cells/s"},
      {"measurement": "EC50", "setting": "T. b. brucei 2T1", "result": 15, "unit": "nM"},
      {"measurement": "Pentamidine transport rate", "setting": "tbaqp2/tbaqp3 null cells; [10]", "result": "0.00022 pmol/10E7 cells/s and 0.000123 pmol/10E7 cells/s"},
      {"measurement": "Pentamidine transport rate, percent of +AQP2-WT", "setting": "tbaqp2/tbaqp3 null cells; [10]", "result": "0.383% and 1.05%"},
      {"measurement": "Pentamidine transport rate AVG", "setting": "tbaqp2/tbaqp3 null cells; AQP2/3-dKO, n=16", "result": "2.76E-04", "unit": "pmol/10E7 cells/s"},
      {"measurement": "Pentamidine transport rate, percent of +AQP2-WT, AVG", "setting": "tbaqp2/tbaqp3 null cells; AQP2/3-dKO, n=16", "result": "1.08% of +AQP2-WT"},
      {"measurement": "Pentamidine transport rate, AVG", "setting": "tbaqp2/tbaqp3 null cells; Fig. 3A, exp AQP001-AQP023, AQP2/3-dKO", "result": "2.76E-04", "unit": "pmol/10E7 cells/s"},
      {"measurement": "Pentamidine transport rate as percent of +AQP2-WT, AVG", "setting": "tbaqp2/tbaqp3 null cells; [11]", "result": 1.32, "unit": "%"},
      {"measurement": "Pentamidine transport rate as percent of +AQP2-WT, single experiments", "setting": "tbaqp2/tbaqp3 null cells; [11]", "result": "1.4% and 1.5% and 1.0%"},
      {"measurement": "Pentamidine transport rate as percent of +AQP2-WT, AVG", "setting": "tbaqp2/tbaqp3 null cells; [12]", "result": 0.383, "unit": "%"},
      {"measurement": "Pentamidine transport rate, AVG", "setting": "tbaqp2/tbaqp3 null cells; [12]", "result": 0.000123, "unit": "pmol/10E7 cells/s"},
      {"measurement": "Pentamidine transport rate, single experiments", "setting": "tbaqp2/tbaqp3 null cells; [12]", "result": "0.0001045 pmol/10E7 cells/s and 0.0001529 pmol/10E7 cells/s and 0.0001563 pmol/10E7 cells/s and 8.02E-05 pmol/10E7 cells/s"},
      {"measurement": "Pentamidine transport rate", "setting": "tbaqp2/tbaqp3 null cells; [13]", "result": "1.22E-04", "unit": "pmol/10E7 cells/s"},
      {"measurement": "Pentamidine transport rate, percent of TbAQP2WT control", "setting": "tbaqp2/tbaqp3 null cells; [13]", "result": 0.57, "unit": "%"},
      {"measurement": "Transport rate AVG", "setting": "tbaqp2/tbaqp3 null cells; strain AQKO, unit not given, +AQP2-WT = 100", "result": 1.05},
      {"measurement": "Gibbs free energy of pentamidine/AQP2 interaction", "setting": "TbAQP2/HAPT1", "result": -10, "unit": "kcal/mol"},
      {"measurement": "EC50, percent of AQP2/3 null EC50", "setting": "[7]", "result": "0.08% and 0.0842% and 1.40% and 0.16%"},
      {"measurement": "EC50", "setting": "[7]; Trypanosoma brucei, read-out: Alamar blue EC50, MEAN", "result": 0.84, "unit": "nM"},
      {"measurement": "EC50", "setting": "[7]; [14]", "result": 1.61, "unit": "nM"},
      {"measurement": "EC50", "setting": "[7]; read-out: Alamar blue EC50, single repeats", "result": 1.5, "unit": "nM"},
      {"measurement": "EC50 as percent of AQP2/3 null EC50, MEAN", "setting": "[8]", "result": 6.89, "unit": "%"},
      {"measurement": "EC50", "setting": "[9]; [14]", "result": 0.43, "unit": "nM"},
      {"measurement": "EC50", "setting": "[9]; read-out: EC50 AVG", "result": 0.43, "unit": "nM"}
    ]}
  ]
}
